# Measured values published in patent publication US20090124608A1, “CB2 Receptor Modulators In Neurodegenerative Diseases And Applications Of The Same” (priority 2006, published 2009).
# “Also recorded” adds a separate entry of the source.
# Columns and labels:
# CB1 receptors = settings: cited from earlier work; for Ki: literature value, read-out: Ki at CB1 receptors
# CB2 receptors = CB2 receptors (Homo sapiens, UniProt P34972); settings: cited from earlier work
# [1] = Water solubility and dissolution in vehicles; settings: for stable dissolution in tested vehicles: ethanol/water, glycerol, polyethylene glycol, high purity olive oil tested
# cannabinoid receptors = experiment: GTPγS binding in end stage spinal cord homogenates from G93A-SOD1 mice, separated by gender; assay type: biochemical, mouse; settings: for 2-AG stimulated G-protein activation remaining on co-incubation with CB2 ligand / HU-210 stimulated G-protein activation remaining on co-incubation with CB2 ligand: ligand 1 μM
# Experimental: (§1) [^35S]GTPγS binding assays were performed as described previously (Prather et al. 2000a) in a buffer containing 20 mM Hepes, 100 mM NaCl, and 10 mM MgCl2 at pH 7.4. Each binding reaction contained 10 μg of spinal cord membrane protein, the presence or absence of cannabinoid ligands (see following), plus 0.1 nM [^35S]GTPγS (1250 Ci/mmol, Perkin Elmer Life and Analytical Sciences) and […] of GDP to suppress basal G-protein activation. Reactions were incubated for 2 hrs at 30 °C. Non-specific binding was defined by binding observed in the presence of 10 μM of non-radioactive GTPγS. The reaction was terminated by rapid vacuum filtration through glass fiber filters followed by two washes with ice-cold assay buffer. 4 mL of scintiverse® (Fisher Scientific) was added to the filters and radioactivity quantified by scintillation counting.
# Harvested spinal cords from the vehicle treated control groups at the end-stage of their disease were separated by gender and used to conduct GTP7S binding experiments, which measure the capability of a ligand to promote or suppress G-protein activation.
# It was next determined if the selective CB2 ligands antagonize G-protein activation produced by an endocannabinoid such as 2-AG as well.
# G93A-SOD1 mice [2] = experiment: Motor function test (clinging to perpendicular wire mesh screen for 60 seconds) in G93A mice; assay type: in vivo, mouse; settings: for improvement in motor function versus vehicle, females: female G93A mice; for improvement in motor function versus vehicle, females / improvement in motor function versus vehicle, males: time to loss of ability to cling 60 seconds; for interval between mean loss of motor function and death, females: female mice, vehicle 19.0 days; for improvement in motor function versus vehicle, males: male G93A mice; for interval between mean loss of motor function and death, males: male mice, vehicle 20.5 days
# Experimental: Beginning on the first day of observing symptoms, mice were tested for motor function biweekly until sacrifice. Motor function testing was initiated by gently placing animals on a horizontal wire mesh screen. The screen was slowly rotated to be perpendicular to the ground (90°). The duration that mice were able to hang onto the perpendicular wire mesh up to a maximum of 120 seconds was recorded. Because vehicle treated mice on average lost the ability to cling to the wire mesh for 60 seconds in the middle of their survival curve, this “all or none” response was utilized to compare motor function across all treatment groups. Kaplan-Meier time-to-event statistics were employed to analyze the data. The event was defined as the number of days after symptom onset that each individual animal was no longer able to cling to the wire mesh screen for 60 seconds.
# Testing twice a week for the duration of the study provided a quantifiable decline during disease progression. Mice were placed on a horizontal wire mesh screen that was gently inverted to 90°. Kaplan-Meier time-to-event curves were used to analyze the data. The event was defined as the day each animal was no longer able to cling to the perpendicular screen for 60 seconds. […] The disparity between male and female motor function was paralleled by the interval between survival for the genders. Male mice survived an average of 39.6±2.0 (FIG. 6a) days past the onset of symptoms, while females lived 9 days longer than males (p<0.0018*, FIG. 6b). For males and females, loss of motor function preceded death by 20.5 (p<0.0002***) and 19.0 days (p<0.0028**), respectively.
# G93A-SOD1 mice [3] = experiment: Survival of G93A mice, daily i.p. treatment initiated at symptom onset; assay type: in vivo, mouse; settings: for survival improvement versus vehicle, females: female G93A mice; for survival improvement versus vehicle, females / survival improvement versus vehicle, males: 3 mg/kg for AM-1241 and AM630, JTE-907 dose not given; for survival improvement versus vehicle, males: male G93A mice
# Description: Hemizygous transgenic male mice with the G93A mutation of the human SOD1 gene (G1H/1) mutation (B6SJL-TgN (SOD1-G93A) 1 Gur) were obtained from Jackson Laboratories and were bred locally with female B6SJL mice (Jackson Laboratory), according to the protocol obtained from the vendor. To decrease the inherent variability in disease onset and survival with these mice, littermate transgenic males (rather than random males from several different litters) were selected to sire subsequent generations of mice.
# Determination of symptom onset, randomization and drug treatment of G93A mice. Symptom onset was assessed by blinded observation of changes in hind limb gait; these changes are related to the mouse's inability to support its weight on its hind limbs. At onset, mice initially place their weight on the toes and then quickly fall to full foot placement (as opposed to healthy mice which walk and run on the hind toes); this “toe-to-heel” walking pattern produces an asymmetric gait between hind and fore limbs and a characteristic “wobbling” gait. Mouse groups were randomized based on symptom onset and alternately placed in control and treated groups, e.g., the first mouse to develop hind limb weakness was placed in the control group, the second was injected with test compound and placed in the treatment group, and so on. […] By definition, the onset administration paradigm employed was focused on what we term the “survival interval”—namely the time from onset to end-stage sacrifice.
# Mice were sacrificed when any of the following criteria were met: (1) inability to right themselves within 30 seconds when placed on their sides; (2) inability to eat or drink, or move toward food and water placed in low-rimmed dishes on cage floor; (3) loss of more than 10% of total body weight in 24 hours; (4) gross loss of grooming behavior; or (5) labored breathing. Criteria for death were confirmed by a second investigator who is blinded to the group identity of each mouse. The age of symptom onset was subtracted from the age at death for each mouse, and a mean survival interval was calculated for each group. By calculating the ratio of the survival interval of treated groups to the survival interval of untreated littermate controls, a X-fold increase in survival was readily determined.
# The effect of chronic administration of cannabinoids on the survival of G93A mice was next examined (FIG. 4). […] The number of days between symptom onset and animal sacrifice was measured (e.g., survival interval). In humans, this is analogous to the time between diagnosis of ALS and death, ranging from 2-5 years.
# CB1/CB2 receptors [4] = experiment: [35S]GTPγS binding, selective antagonism of HU-210, WT-OE spinal cord membranes; assay type: biochemical, mouse
# CB1/CB2 receptors [5] = experiment: [35S]GTPγS binding, selective antagonism of HU-210, G93A spinal cord membranes; assay type: biochemical, mouse
# CB1 and CB2 receptors = experiment: [35S]GTPγS binding with selective agonists in mouse spinal cord membranes; assay type: biochemical; settings: data not shown
# Experimental: as §1
# We initially attempted to compare CB 1 and CB2 receptor activation of G-proteins between WT-OE and G93A spinal cord membranes by conducting [^35S]GTPγS binding assays in the presence of selective agonists.
# [6] = female homogenates, HU-210 100 nM
# [7] = male homogenates, HU-210 100 nM
# [8] = WT-OE spinal cord membranes, HU-210 100 nM, antagonist 3 μM
# [9] = G93A mice, i.p. daily from onset, 3.0 mg/kg
# [10] = daily injections initiated at symptom onset
# CB2 receptors, sequence (P34972 whole entry): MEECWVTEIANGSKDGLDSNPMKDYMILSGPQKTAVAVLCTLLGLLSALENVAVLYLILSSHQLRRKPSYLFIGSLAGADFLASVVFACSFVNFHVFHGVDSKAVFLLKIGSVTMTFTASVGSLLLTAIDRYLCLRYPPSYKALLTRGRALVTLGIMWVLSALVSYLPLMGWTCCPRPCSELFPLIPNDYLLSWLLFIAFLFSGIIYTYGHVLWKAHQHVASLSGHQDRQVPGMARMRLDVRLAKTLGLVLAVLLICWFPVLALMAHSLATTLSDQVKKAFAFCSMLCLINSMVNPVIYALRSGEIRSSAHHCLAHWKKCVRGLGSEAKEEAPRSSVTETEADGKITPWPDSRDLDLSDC
molecule,measurement,setting,value
"Cc1c(C(=O)NN2CCCCC2)nn(-c2ccc(Cl)cc2Cl)c1-c1ccc(I)cc1 [AM-251, N-(Piperidin-1-yl)-5-(4-iodophenyl)-1-(2,4-dichlorophenyl)-4-methyl-1H-pyrazole-3-carboxamide]",Ki,CB1 receptors,~7 nM
same,affinity at CB2 receptors weaker than at CB1,CB2 receptors; Gatley et al. 1997,over 300 fold
CCCCCOc1c(OC)ccc2cc(C(=O)NCc3ccc4c(c3)OCO4)c(=O)[nH]c12 [JTE-907],water solubility,[1],very poor water solubility
same,stable dissolution in tested vehicles,[1],achieved only with olive oil
same,reduction of HU-210 induced G-protein activation (CB2 receptor antagonism),cannabinoid receptors; female homogenate,31.34 fmole/mg protein
same,2-AG stimulated G-protein activation remaining on co-incubation with CB2 ligand,"cannabinoid receptors; female homogenate, 2-AG 3 μM",5.96±0.97 fmole/mg protein
same,HU-210 stimulated G-protein activation remaining on co-incubation with CB2 ligand,cannabinoid receptors; [6],9.25±1.2 fmole/mg protein
same,reduction of HU-210 induced G-protein activation (CB2 receptor antagonism),cannabinoid receptors; male homogenate,12.31 fmole/mg protein
same,2-AG stimulated G-protein activation remaining on co-incubation with CB2 ligand,"cannabinoid receptors; male homogenate, 2-AG 3 μM",18.14±2.1 fmole/mg protein
same,HU-210 stimulated G-protein activation remaining on co-incubation with CB2 ligand,cannabinoid receptors; [7],23.3 fmole/mg protein
same,"improvement in motor function versus vehicle, females",G93A-SOD1 mice [2],92%
same,"interval between mean loss of motor function and death, females",G93A-SOD1 mice [2],4 days
same,"improvement in motor function versus vehicle, males",G93A-SOD1 mice [2],61%
same,"interval between mean loss of motor function and death, males",G93A-SOD1 mice [2],10.7 days
same,"survival improvement versus vehicle, females",G93A-SOD1 mice [3],25%
same,"survival improvement versus vehicle, males",G93A-SOD1 mice [3],did not live significantly longer
"N-[(1S)-endo-1,3,3-Trimethylbicyclo[2.2.1]heptan-2-yl]-5-(4-chloro-3-methylphenyl)-1-(4-ethoxybenzyl)-pyrazole-3-carboxamide [SR-144528]",net reduction of HU-210-induced G-protein activation,"CB1/CB2 receptors [4]; WT-OE membranes, antagonist 3 μM",15.6 fmoles/mg protein
same,% blockade of HU-210-induced G-protein activation,CB1/CB2 receptors [4]; [8],approximately 50%
same,HU-210 stimulated [35S]GTPγS binding remaining on co-incubation with antagonist,CB1/CB2 receptors [4]; [8],15.1±1.1 fmole/mg protein
same,% blockade of HU-210-induced G-protein activation,CB1/CB2 receptors [5],49%
same,HU-210 stimulated [35S]GTPγS binding remaining on co-incubation with antagonist,CB1/CB2 receptors [5],29.5±6.4 fmole/mg protein
same,net reduction of HU-210-induced G-protein activation,CB1/CB2 receptors [5],27.9 fmole/mg protein
"COc1ccc2c(c1)c(CCN1CCOCC1)c(C)n2C(=O)c1cccc(Cl)c1Cl [GW-405833, (2,3-dichloro-phenyl)-[5-methoxy-2-methyl-3-(2-morpholin-4-yl-ethyl)-indol-1-yl]-methanone]",G-protein activation by selective agonist,CB1 and CB2 receptors,"failed attempts to demonstrate consistent, measurable G-protein activation; also recorded: unable to demonstrate consistent, measurable G-protein activation"
"Cc1c(C(=O)c2cccc3ccccc23)c2cccc3c2n1C(CN1CCOCC1)CO3 (stereo not drawn) [WIN-55,212-2, [2,3-Dihydro-5-methyl-3-[(morpholinyl)methyl]pyrrolo-[1,2,3-de]-1,4-benzoxazin-yl]-(1-naphthalenyl)methanone]",water solubility,[1],very poor water solubility
same,stable dissolution in tested vehicles,[1],achieved only with olive oil
same,increase in survival interval versus vehicle,G93A-SOD1 mice [3]; 5 mg/kg daily i.p.,8.8 days
same,survival interval (symptom onset to sacrifice),"G93A-SOD1 mice [3]; 5 mg/kg daily i.p., vehicle 23.7+/−1.7 days",32.5 ± 3.6 days
"CCCCCCC(C)(C)c1cc(O)c2c(c1)OC(C)(C)[C@@H]1CC=C(CO)C[C@@H]21 [HU-210, (−)-11-Hydroxy-delta(8)-tetrahydrocannabinol-dimethylheptyl]",[35S]GTPγS binding to G-proteins produced by agonist,"CB1/CB2 receptors [4]; WT-OE spinal cord membranes, HU-210 100 nM",30.7±6.2 fmole/mg protein
same,[35S]GTPγS binding to G-proteins produced by agonist,"cannabinoid receptors; female spinal cord homogenates, HU-210 100 nM",40.59±8.5 fmole/mg protein
same,[35S]GTPγS binding to G-proteins produced by agonist,"cannabinoid receptors; male spinal cord homogenates, HU-210 100 nM",35.51±5.6 fmole/mg protein
same,Ki,CB1 receptors,~0.5 nM
same,[35S]GTPγS binding to G-proteins produced by agonist,"CB1/CB2 receptors [5]; G93A spinal cord membranes, HU-210 100 nM",57.4±4.4 fmole/mg protein
COc1ccc(C(=O)c2c(C)n(CCN3CCOCC3)c3cc(I)ccc23)cc1 [AM-630],water solubility,[1],very poor water solubility
same,stable dissolution in tested vehicles,[1],achieved only with olive oil
same,2-AG stimulated G-protein activation remaining on co-incubation with CB2 ligand,"cannabinoid receptors; female homogenate, 2-AG 3 μM",8.49±3.7 fmole/mg protein
same,HU-210 stimulated G-protein activation remaining on co-incubation with CB2 ligand,cannabinoid receptors; [6],17.76±3.3 fmole/mg protein
same,2-AG stimulated G-protein activation remaining on co-incubation with CB2 ligand,"cannabinoid receptors; male homogenate, 2-AG 3 μM",6.66±3.9 fmole/mg protein
same,HU-210 stimulated G-protein activation remaining on co-incubation with CB2 ligand,cannabinoid receptors; [7],21.02±5.6 fmole/mg protein
same,affinity for CB1 receptors less than for CB2,CB1 receptors; Hosohata et al. 1997,more than 165 fold
same,Ki,"CB2 receptors; literature value, read-out: Ki at CB2 receptors",~20 nM
same,"improvement in motor function versus vehicle, females",G93A-SOD1 mice [2],48%
same,"interval between mean loss of motor function and death, females",G93A-SOD1 mice [2],8.7 days
same,"improvement in motor function versus vehicle, males",G93A-SOD1 mice [2],64%
same,"interval between mean loss of motor function and death, males",G93A-SOD1 mice [2],18.9 days
same,Survival Interval Ratio (SIR),G93A-SOD1 mice [3]; [9],2.30
same,Total Life-Span Ratio (TLR),G93A-SOD1 mice [3]; [9],1.27
same,survival compared with AM-1241 treated mice,G93A-SOD1 mice [3]; G93A-SOD1 mice,survived twice as long as those mice treated with AM-1241
same,extension of total life-span versus controls,G93A-SOD1 mice [3]; [10],27%
same,living longer after symptom onset than controls (survival interval increase),G93A-SOD1 mice [3]; [10],130%
same,"survival improvement versus vehicle, females",G93A-SOD1 mice [3],8%
same,"survival improvement versus vehicle, males",G93A-SOD1 mice [3],27%
same,effect on survival of G93A-SOD1 mice,G93A-SOD1 mice [3]; treatment initiated at symptom onset,pronounced increase in survival
"CCCCCC=CCC=CCC=CCC=CCCCC(=O)OC(CO)CO [2-AG, (5Z,8Z,11Z, 14Z)-5,8,11,14-Eicosatetraenoic acid, 2-hydroxy-1-(hydroxymethyl) ethyl ester]",[35S]GTPγS binding to G-proteins produced by agonist,"cannabinoid receptors; female spinal cord homogenate, 2-AG 3 μM",29.93±3.3 fmole/mg protein
same,Emax of G-protein activation,cannabinoid receptors; female transgenic spinal cord,17.81±1.89
same,[35S]GTPγS binding to G-proteins produced by agonist,"cannabinoid receptors; male spinal cord homogenate, 2-AG 3 μM",31.30±1.7 fmole/mg protein
same,Emax of G-protein activation,cannabinoid receptors; male transgenic spinal cord,23.21±5.82
"(−)-cis-3-[2-Hydroxy-4-(1,1-dimethylheptyl)-phenyl]-trans-4-(3-hydroxypropyl)-cyclohexanol) [CP-55,940]",Ki,CB1 receptors,~0.5 nM
